{"source": "patent US7763752B2", "about": "“Amino alcohol derivatives, salts thereof and immunosuppresive agents” (Kyorin Pharmaceutical Co., Ltd., priority 2002, dated 2010)", "key": {"[1]": {"tested_on": "Host vs Graft Reaction in Mice", "assay": "Inhibitory effects of test compounds on host vs graft reaction in mice (popliteal lymph node weight)", "assay_type": "in vivo, C3H/HeN mice", "protocol": "Inhibitory Effects of Test Compounds on Host vs Graft Reaction in Mice\nThis experiment was performed according to the method described in Transplantation 55(3) (1993): 578-591. Spleens were collected from 7 to 12 week old male BALB/c mice (available from CLEA JAPAN Inc., CHARLES RIVER JAPAN Inc., or JAPAN SLC Inc.). The spleens were placed in an RPMI-1640 medium (SIGMA, GIBCO […] Inc., or IWAKI GLASS Co., Ltd.) and were gently pressed between two slide glasses and then passed through a cell strainer (70 μm, Falcon) to form a cell suspension. The suspension was then centrifuged and the supernatant was discarded. An ammonium chloride-Tris isotonic buffer was added to the suspension to lyse erythrocytes. The cells were then centrifuged three times in RPMI-1640 medium for washing and were resuspended in an RPMI-1640 medium. To this suspension, mitomycin C (KYOWA HAKKO KOGYO Co., Ltd.) was added to a final concentration of 25 μg/mL and the suspension was incubated for 30 minutes at 37° C. in a 5% CO2 atmosphere. The cells were centrifuged three times in RPMI-1640 medium for washing and were resuspended in an RPMI-1640 medium so that the medium would contain 2.5×10^8 cells/mL. This suspension served as a “stimulation cell suspension.” Using a 27 G needle, along with a microsyringe (Hamilton), 20 μL (5×10^6 cells/mouse) of the stimulation cell suspension was subcutaneously injected into the right hind footpad of 6 to 12 week old male C3H/HeN mice (CLEA JAPAN Inc., CHARLES RIVER JAPAN Inc., or JAPAN SLC Inc.). As a normal control group, a group of mice were injected with RPMI-1640 medium alone. 4 days after the injection, right popliteal lymph nodes were collected and were weighed on a Mettler AT201 electronic scale (METTLER TOLEDO Co., Ltd.). Each animal was intraperitoneally administered a test compound once a day for four consecutive days starting on the day of the injection of the stimulation cells (i.e., total of 4 times). As a control group, a group of the animals were administered the same solvent as that used in the preparation of each test compound."}, "[2]": {"conditions": "Mus musculus, ip, dose 0.1 mg/kg"}, "[3]": {"conditions": "Mus musculus, ip, dose 0.03 mg/kg"}}, "note": "Where a name gives a salt, the structure may show the parent alone.", "data": [{"smiles": "CCC(N)(CO)CCc1ccc(Sc2cccc(OCc3ccccc3)c2)cc1Cl", "note": "(racemic) [Example 194, (±)-2-amino-4-[4-(3-benzyloxyphenylthio)-2-chlorophenyl]-2-ethylbutane-1-ol]", "values": [{"measurement": "inhibition in vivo at 0.1 mg/kg", "setting": "[1]; [2]", "value": 70, "unit": "%"}]}, {"smiles": "CC(=O)NC(CO)CCc1ccc(Sc2cccc(OCc3ccccc3)c2)cc1Cl", "note": "(stereo not shown) [Example 201, 2-acetylamino-4-[4-(3-benzyloxyphenylthio)-2-chlorophenyl]butane-1-ol]", "values": [{"measurement": "melting point", "value": "78 to 81", "unit": "°C"}]}, {"smiles": "Cl.NC(CO)CCCc1ccc(Sc2cccc(C(F)(F)F)c2)cc1Cl", "note": "(stereo not shown)", "values": [{"measurement": "melting point", "value": "166 to 168", "unit": "°C"}]}, {"smiles": "C#CCC(N)(CO)CCCc1ccc(Sc2cccc(OCc3ccccc3)c2)cc1Cl", "note": "(stereo not shown) [Example 222, 2-amino-5-[4-(3-benzyloxyphenylthio)-2-chlorophenyl]-2-propargylpentane-1-ol hydrochloride]", "values": [{"measurement": "inhibition in vivo at 0.3 mg/kg", "setting": "[1]; Mus musculus, ip", "value": 57, "unit": "%"}]}, {"smiles": "CC(O)C(CCCc1ccc(Oc2cccc(OCc3ccccc3)c2)cc1Cl)NC(=O)OC(C)(C)C", "note": "(stereo not shown) [Example 131, 6-[4-(3-benzyloxyphenoxy)-2-chlorophenyl]-3-t-butoxycarbonylaminohexane-2-ol]", "values": [{"measurement": "inhibition in vivo at 0.3 mg/kg", "setting": "[1]; Mus musculus, ip", "value": 57, "unit": "%"}]}, {"smiles": "CC(N)(CO)CCc1ccc(Sc2cccc(OCc3ccccc3)c2)cc1Cl.Cl", "note": "(single isomer, unassigned; (+)) [Example 192, (+)-2-amino-4-[4-(3-benzyloxyphenylthio)-2-chlorophenyl]-2-methylbutane-1-ol hydrochloride]", "values": [{"measurement": "Inhibition (%)", "setting": "[1]; dose 0.1 mg/kg, hydrochloride", "value": 86, "unit": "%"}]}, {"smiles": "CCCC(N)(CO)CCCc1ccc(Sc2cccc(OCc3ccccc3)c2)cc1Cl.Cl", "note": "(single isomer, unassigned; (+)) [Example 209, (+)-2-amino-5-[4-(3-benzyloxyphenylthio)-2-chlorophenyl]-2-propylpentane-1-ol]", "values": [{"measurement": "Inhibition (%)", "setting": "[1]; dose 0.03 mg/kg", "value": 71, "unit": "%"}, {"measurement": "melting point", "value": "55 to 57", "unit": "°C"}]}, {"smiles": "CC(N)(CO)CCc1ccc(Sc2cccc(OCc3ccccc3)c2)cc1Cl.Cl", "note": "(single isomer, unassigned; (+)) [Example 191, (+)-2-amino-4-[4-(3-benzyloxyphenylthio)-2-chlorophenyl]-2-methylbutane-1-ol hydrochloride]", "values": [{"measurement": "Inhibition (%)", "setting": "[1]; dose 0.1 mg/kg, hydrochloride", "value": 41, "unit": "%"}]}, {"smiles": "CC(O)C(N)CCCc1ccc(Sc2cccc(OCc3ccccc3)c2)cc1Cl", "note": "(stereo not shown) [Example 135, 3-amino-6-[4-(3-benzyloxyphenylthio)-2-chlorophenyl]hexane-2-ol hydrochloride]", "values": [{"measurement": "inhibition in vivo at 1 mg/kg", "setting": "[1]; Mus musculus, ip, dose 1 mg/kg", "value": 69, "unit": "%"}]}, {"smiles": "CCC(N)=C(CO)CCCc1ccc(Sc2cccc(OCc3ccccc3)c2)cc1Cl", "note": "[Example 227, 3-amino-7-[4-(3-benzyloxyphenylthio)-2-chlorophenyl]-4-hydroxymethyl-3-heptene hydrochloride]", "values": [{"measurement": "inhibition in vivo at 0.3 mg/kg", "setting": "[1]; Mus musculus, ip", "value": 58, "unit": "%"}]}, {"smiles": "CCC(N)(CO)CCCc1ccc(Sc2cccc(OCc3ccccc3)c2)cc1Cl", "note": "(racemic) [Example 188, (±)-2-amino-5-[4-(3-benzyloxyphenylthio)-2-chlorophenyl]-2-ethylpentane-1-ol hydrochloride]", "values": [{"measurement": "inhibition in vivo at 0.1 mg/kg", "setting": "[1]; [2]", "value": 78, "unit": "%"}]}, {"smiles": "CC(C)CC(N)(CO)CCCc1ccc(Sc2cccc(OCc3ccccc3)c2)cc1Cl", "note": "(stereo not shown) [Example 223, 2-amino-5-[4-(3-benzyloxyphenylthio)-2-chlorophenyl]-2-isobutylpentane-1-ol hydrochloride]", "values": [{"measurement": "inhibition in vivo at 0.3 mg/kg", "setting": "[1]; Mus musculus, ip", "value": 70, "unit": "%"}]}, {"smiles": "NC(CO)(CCO)CCCc1ccc(Sc2cccc(OCc3ccccc3)c2)cc1Cl", "note": "(stereo not shown) [Example 148, 3-amino-6-[4-(3-benzyloxyphenylthio)-2-chlorophenyl]-3-hydroxymethylhexanol hydrochloride]", "values": [{"measurement": "inhibition in vivo at 0.3 mg/kg", "setting": "[1]; Mus musculus, ip", "value": 71, "unit": "%"}]}, {"smiles": "OCC(CCCc1ccc(Oc2cccc(C(F)(F)F)c2)cc1)Nc1ccccc1", "note": "(stereo not shown) [Example 127, 2-phenylamino-5-[4-(3-trifluoromethylphenoxy)phenyl]pentane-1-ol]", "values": [{"measurement": "inhibition in vivo at 10 mg/kg", "setting": "[1]; Mus musculus, ip, dose 10 mg/kg", "value": 57, "unit": "%"}]}, {"smiles": "CCC(N)(CO)CCc1ccc(Sc2cccc(OCc3ccccc3)c2)cc1Cl", "note": "(single isomer, unassigned; (-)) [Example 196, (−)-2-amino-4-[4-(3-benzyloxyphenylthio)-2-chlorophenyl]-2-ethylbutane-1-ol]", "values": [{"measurement": "inhibition in vivo at 0.03 mg/kg", "setting": "[1]; [3]", "value": 63, "unit": "%"}]}, {"smiles": "CC(N)(CO)CCCc1ccc(Sc2cccc(OCc3ccccc3)c2)cc1Cl", "note": "(single isomer, unassigned; (+)) [Example 185, (+)-2-amino-5-[4-(3-benzyloxyphenylthio)-2-chlorophenyl]-2-methylpentane-1-ol]", "values": [{"measurement": "Inhibition (%)", "setting": "[1]; dose 0.1 mg/kg", "value": 88, "unit": "%"}]}, {"smiles": "Cl.NC(CO)CCCc1ccc(S(=O)(=O)c2cccc(OCc3ccccc3)c2)cc1Cl", "note": "(stereo not shown)", "values": [{"measurement": "melting point", "value": "154 to 156", "unit": "°C"}]}, {"smiles": "CCCC(N)(CO)CCCc1ccc(Sc2cccc(OCc3ccccc3)c2)cc1Cl", "note": "(stereo not shown) [Example 197]", "values": [{"measurement": "inhibition in vivo at 0.03 mg/kg", "setting": "[1]; [3]", "value": 54, "unit": "%"}]}, {"smiles": "CC(N)(CO)CCCc1ccc(Sc2cccc(OCc3ccccc3)c2)cc1Cl", "note": "(single isomer, unassigned; (+)) [Example 184, (+)-2-amino-5-[4-(3-benzyloxyphenylthio)-2-chlorophenyl]-2-methylpentane-1-ol]", "values": [{"measurement": "Inhibition (%)", "setting": "[1]; dose 0.1 mg/kg", "value": 45, "unit": "%"}]}, {"smiles": "CCC(N)(CO)CCCc1ccc(Sc2cccc(OCc3ccccc3)c2)cc1Cl", "note": "(single isomer, unassigned; (+)) [Example 189, (+)-2-amino-5-[4-(3-benzyloxyphenylthio)-2-chlorophenyl]-2-ethylpentane-1-ol]", "values": [{"measurement": "inhibition in vivo at 0.03 mg/kg", "setting": "[1]; [3]", "value": 71, "unit": "%"}]}, {"smiles": "NC(CO)(CCCO)CCCc1ccc(Sc2cccc(OCc3ccccc3)c2)cc1Cl", "note": "(stereo not shown) [Example 151, 4-amino-7-[4-(3-benzyloxyphenylthio)-2-chlorophenyl]-4-hydroxymethylheptanol hydrochloride]", "values": [{"measurement": "inhibition in vivo at 0.03 mg/kg", "setting": "[1]; [3]", "value": 65, "unit": "%"}]}]}
